Reference: the supplement of paper PMC11061612

Columns and labels:
[1] = tested on: KARPAS-1106P (B-Cell Non-Hodgkin's Lymphoma); experiment: Bliss excess, mean over the matrix (fraction); higher = more synergy
How it was run: (§1)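 Bliss excess equals the observed combination effect minus the expected value EA + EB − EA·EB, where EA and EB are the effects of each agent alone. Combination Emax is the second-highest inhibition within the matrix. Inhibition was scaled from CellTiter-Glo 2.0 luminescence, with 0 set by vehicle wells and 1 by blank wells, after 72 hours of two-drug dosing of cells plated in 1536-well plates.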

[2] = tested on: DOV13 (Ovarian Carcinoma); experiment: as above
How it was run: as §1

[3] = tested on: SN12C (Kidney Carcinoma); experiment: as above
How it was run: as §1

[4] = tested on: NCI-H1299 (Non-Small Cell Lung Carcinoma); experiment: as above
How it was run: as §1

[5] = tested on: COR-L95 (Small Cell Lung Carcinoma); experiment: as above
How it was run: as §1

[6] = tested on: MDA-MB-157 (Breast Carcinoma); experiment: as above
How it was run: as §1

[7] = tested on: ES7 (Ewing's Sarcoma); experiment: as above
How it was run: as §1

[8] = tested on: IHH-4 (Thyroid Gland Carcinoma); experiment: combination Emax (second highest fraction inhibited in the dose matrix, 72 h); higher = more inhibition; extreme values may be limits of the assay
How it was run: as §1

[9] = tested on: NCI-H211 (Small Cell Lung Carcinoma); experiment: as above
How it was run: as §1

[10] = tested on: KARPAS-620 (Plasma Cell Myeloma); experiment: as above
How it was run: as §1

[11] = tested on: U-266 (Plasma Cell Myeloma); experiment: as above
How it was run: as §1

[12] = tested on: DOV13 (Ovarian Carcinoma); experiment: as above
How it was run: as §1

[13] = tested on: NALM-6 (B-Lymphoblastic Leukemia); experiment: as above
How it was run: as §1

[14] = tested on: NCI-H1299 (Non-Small Cell Lung Carcinoma); experiment: as above
How it was run: as §1

[15] = tested on: OCI-AML2 (Acute Myeloid Leukemia); experiment: as above
How it was run: as §1

[16] = tested on: COR-L95 (Small Cell Lung Carcinoma); experiment: as above
How it was run: as §1

[17] = tested on: MDA-MB-231 (Breast Carcinoma); experiment: as above
How it was run: as §1

[18] = tested on: ES7 (Ewing's Sarcoma); experiment: as above
How it was run: as §1

[19] = tested on: KATOIII (Gastric Carcinoma); experiment: as above
How it was run: as §1

[20] = tested on: G-292-Clone-A141B1 (Osteosarcoma); experiment: as above
How it was run: as §1

Compound | Bliss excess [1] | Bliss excess [2] | Bliss excess [3] | Bliss excess [4] | Bliss excess [5] | Bliss excess [6] | Bliss excess [7] | combination Emax [8] | combination Emax [9] | combination Emax [10] | combination Emax [11] | combination Emax [12] | combination Emax [13] | combination Emax [14] | combination Emax [15] | combination Emax [16] | combination Emax [17] | combination Emax [18] | combination Emax [19] | combination Emax [20]
O=C(c1cc(Cc2n[nH]c(=O)c3ccccc23)ccc1F)N1CCN(C(=O)C2CC2)CC1 [Olaparib] + Cc1c2c(nn1C)CSCc1cc(n(C)n1)CSc1cc(c3ccccc3c1)OCCCc1c(C(=O)O)n(C)c3c-2c(Cl)ccc13 [AZD5991] (first compound max 10 µM, 7x7, partner max 1 µM) | 0.0403 | -0.0158 | -0.053 | -0.0455 | -0.0514 | -0.0291 | 0.022 | 0.174 | 0.957 | 1 | 0.846 | 0.216 | 0.74 | 0.0533 | 0.953 | 0.395 | 0.161 | 0.942 | 0.356 | 0.109
C[C@@H]1COCCN1c1cc(C2([S@](C)(=N)=O)CC2)nc(-c2ccnc3[nH]ccc23)n1 [AZD6738] + Nc1ccn([C@@H]2O[C@H](CO)[C@@H](O)C2(F)F)c(=O)n1 [Gemcitabine] (first compound max 10 µM, 7x7, partner max 0.3 µM) | 0.0614 | 0.0205 | 0.0577 | 0.0963 | -0.0359 | 0.0295 | 0.0367 | 1 | 0.973 | 0.763 | 0.747 | 0.965 | 0.974 | 0.841 | 1 | 0.459 | 0.858 | 0.991 | 0.656 | 0.413
